According to patent US11602532B2, “Nanoparticle formulations of decoquinate in the form of solid solution” (CAS Lamvac (Guangzhou) Biomedical Technology Co., Ltd., priority 2019, dated 2023):
Read-outs that look alike come from different tables or passages of the source.

Key:
[1] = tested on: pfB74F6 (PS); experiment: Malaria SYBR fluorescence (MSF) blood stage assay, pfB74F6; assay type: cell-based; conditions: Plasmodium falciparum, read-out: IC50 (nM) Mean
Method: (§1) Fifteen different preparations of decoquinate solid solutions as described in Examples were tested in cell culture assays to assess the growth inhibition of blood stage Plasmodium in freshly isolated human blood cells and the growth inhibition of Plasmodium in the liver stage in cell culture of HepG2 cells. The malaria SYBR fluorescence (MSF) assay was performed to detect the parasite DNA of Plasmodium falciparum in late-ring or early-trophozoite stages. […] The intensity of fluorescence generated by the binding of SYBR Green I dye to Plasmodium DNA is quantitatively proportional to the number of parasites. The detailed description of method refers to SOP of the inventors.
(§2) Chloroquine and artemisinin were used as positive controls in the same experiments.

[2] = tested on: Pf3D7; experiment: Malaria SYBR fluorescence (MSF) blood stage assay, Pf3D7; assay type: cell-based; conditions: Plasmodium falciparum, read-out: IC50 (nM) Mean
Method: as §1, §2

[3] = tested on: pfDd2; experiment: Malaria SYBR fluorescence (MSF) blood stage assay, pfDd2; assay type: cell-based; conditions: Plasmodium falciparum, read-out: IC50 (nM) Mean
Method: as §1, §2

[4] = tested on: Pf803; experiment: Malaria SYBR fluorescence (MSF) blood stage assay, Pf803; assay type: cell-based; conditions: Plasmodium falciparum, read-out: IC50 (nM) Mean
Method: as §1, §2
(§3) The HME solid solutions were treated with alkaline buffer (pH 9), or with high temperature (60° C.) or with high humidity (92%) for 5 or 10 days respectively and then used for testing decoquinate inhibitory effects in in vitro blood stage experiments using freshly prepared red blood cells infected with Plasmodium Pf803 or PfB12D9. The base pH was neutralized by dialysis of decoquinate HME samples before used in cell culture experiments.

[5] = tested on: pfB12D9 (PS); experiment: Malaria SYBR fluorescence (MSF) blood stage assay, pfB12D9; assay type: cell-based; conditions: Plasmodium falciparum, read-out: IC50 (nM) Mean
Method: as §1
Table 6 is the results showing in vitro antimalarial potency of decoquinate HME formulations prepared from Example 8 (F8) and Example 15 (F15). […] Chloroquine and artemisinin were used as positive controls in the same experiments.
as §3

[6] = tested on: pfB47D6 (PS); experiment: Malaria SYBR fluorescence (MSF) blood stage assay, pfB47D6; assay type: cell-based; conditions: Plasmodium falciparum, read-out: IC50 (nM) Mean
Method: as §1, §2

[7] = tested on: pfB74C4 (PS); experiment: Malaria SYBR fluorescence (MSF) blood stage assay, pfB74C4; assay type: cell-based; conditions: Plasmodium falciparum, read-out: IC50 (nM) Mean
Method: as §1, §2

[8] = tested on: pfB64G11 (PS); experiment: Malaria SYBR fluorescence (MSF) blood stage assay, pfB64G11; assay type: cell-based; conditions: Plasmodium falciparum, read-out: IC50 (nM) Mean
Method: as §1, §2

[9] = HPLC analysis of decoquinate after HME, acid or alkaline treatment; assay type: physicochemical; conditions: treated with pH 1.2 solution for 2 days
Method: Samples are dialyzed against distilled water, diluted and analyzed with the established method. […] Differential scanning calorimetry (DSC) analysis and X-ray diffraction analysis were performed for the selected formulations in the Examples described above.

[10] = tested on: Plasmodium berghei ANKA 868 expressing luciferase; experiment: Inhibition of liver stage development assay (ILSDA) in HepG2 cells; assay type: cell-based; conditions: HepG2, read-out: PQ Mean (IC50)
Method: For the inhibition of liver stage development assay (ILSDA), HepG2 liver cells were cultured with Plasmodium berghei sporozoite expressing firefly luciferase in the presence of a series of dilutions of test compound. In the case of formulations, the compound concentration was determined by the quantitation of HPLC. […] The culture was maintained in microtiter plates for 48 hours after sporozoite invasion and intracellular proliferation of P. berghei parasites in HepG2 cells. The growth inhibition of the parasites by the test compound or the compound complexed with the excipients was determined by measuring the luminescent intensity produced by the process of luciferase catalyzing the substrates which were added by the end of incubation.
The experiments were carried out on HepG2 cells incubated with the sporozoites isolated from salivary glands of infected mosquitoes. […] The results were expressed by the half maximal inhibition concentration (IC50).

[11] = tested on: Plasmodium berghei ANKA (Pb 868 sporozoites); experiment: Causal prophylactic efficacy against sporozoite inoculation in NIH-Swiss female mice; assay type: in vivo
Method: The NIH-Swiss female mice used for the experiment were raised for at least 7 days after arrival. At the start of the experiment, the mice were 7 weeks old. Only one mouse was housed in each cage and maintained in a room with a temperature range of 18 to 26° C. with a relative humidity of 34% to 68% in a 12/12h light-dark cycle. Food and water were provided ad libitum during quarantine and throughout the study. This experiment was carried out in strict accordance with the relevant animal testing regulations (the Chinese State Council's Laboratory Animal Management Regulations, Revised Mar. 1, 2017). The decoquinate suspension used in the animal experiment was from the product of Examples 2, 8, 9, 11, 12 and 15 (F2, F8, F9, F11, F12 and F15), prepared with saline and subjected to ultrasonic treatment for 5 minutes. Each animal experiment was repeated at least three times with a group of 5 each time, so that at least 15 mice were tested in each group. The mice were inoculated with Plasmodium parasites by an injection of 50,000 sporozoites of Plasmodium berghei ANKA (Pb 868 sporozoites) through the tail vein of each mouse. Testing compound or formulation compound was administered to mice by PO (oral administration, by the manually intragastric method) the day before, the day of, and the next day after Plasmodium inoculation. The formulation compound suspended in saline were quantitated by HPLC method before dosing animals. The positive control was primaquine, an antimalarial drug used for the liver-stage Plasmodium. The vehicle control was the components used in the solid dispersion of decoquinate other than decoquinate. No anti-malarial activity was found with the vehicle control, the results of which were consistent with those obtained by using only saline as a negative control. The detection of Plasmodium parasitemia was performed as follows: a conventional method was used to count red blood cells per mm^3 of blood in that a thin film of blood was prepared and stained with 3% Giemsa for 20 minutes; and then the number of infected red blood cells per 1000 red blood cells was counted under oil microscope to obtain erythrocyte infected rate (EIR, ‰). If the parasites were not seen in the thin film, the thick film was prepared for detection of parasites and the results expressed as the parasite number per 100 white blood cells (WBC). Survival rates were calculated on day 60 post-infection for the still live mice versus the dead mice.
[…] The results shown were the number of infected mice on day 12 from the microscopic detection of parasites of thin or thick films. The results also include the protection rate on day 12 and survival rate on day 60. The products from F8, F9, F11 and F15 have 100% survival rates whereas PQ, F2 and F12 have survival rates of 80%.
Table 8 illustrates efficacy studies of the HME compositions prepared in various examples in mice infected with Plasmodium berghei expressing luciferase; wherein decoquinate given to animals at a dose of 5 mg per kg was in the saline suspension of F2, F8, F9, F11, F12, and […] HME preparations; the saline group as a negative control; PQ represents the primaquine group used as a positive control at a dose of 30 mg per kg body weight. […] Protection rates were calculated according to the data of parasitemia detection in mice on day 12 of Plasmodium sporozoite inoculation and the survival rates in each group on day 60 post the sporozoite inoculation.

[12] = primaquine 20 mg/kg (table), intragastric, 3 daily doses, 5 mice per group

`C[C@@H]1CC[C@H]2[C@@H](C)C(=O)O[C@@H]3O[C@@]4(C)CC[C@@H]1[C@]32OO4` [Artemisinin] showed an IC50 ([1]; blood stage, pfB74F6, sample collected from patients) of 14.5 nM, an IC50 ([2]; blood stage, Pf3D7, 72h) of 23.1 nM and an IC50 ([3]; blood stage, pfDd2 (multidrug resistance including chloroquine), 72h) of 26 nM. The IC50 ([4]; blood stage, Pf803 (chloroquine resistance), 72h) was 32 nM, the IC50 [5] was 24.1 nM and the IC50 ([6]; blood stage, pfB47D6, sample collected from patients) was 25.4 nM. For the same compound, the IC50 ([7]; blood stage, pfB74C4, sample collected from patients) was 26.4 nM and the IC50 ([8]; blood stage, pfB64G11, sample collected from patients) was 6.66 nM.

`CCN(CC)CCCC(C)Nc1ccnc2cc(Cl)ccc12` (centres unmarked) [Chloroquine] showed an IC50 [1] of 79.2 nM, an IC50 ([2]; 72 h) of 57.5 nM and an IC50 ([3]; 72 h) of 244 nM. It also gave an IC50 ([4]; 72 h) of 957 nM, an IC50 [5] of 63.3 nM and an IC50 [6] of 78.2 nM. It also gave an IC50 [7] of 59.3 nM and an IC50 [8] of 30.4 nM.

In the case of `CCCCCCCCCCOc1cc2c(O)c(C(=O)OCC)cnc2cc1OCC` [Decoquinate, ethyl-6-decyloxy-7-ethoxy-4-hydroxyquinoline-3-carboxylate], the “peak pattern and retention time of decoquinate in HPLC” value [9] is reported as “change in the peak pattern and the shift in the retention time”.

With `COc1cc(NC(C)CCCN)c2ncccc2c1` (centres unmarked) [PQ, primaquine] the IC50 [10] was 1730 nM, the survival rate ([11]; 30 mg primaquine per kg body weight, day 60) was 80% and the “Infected (Day 12)” value [11, 12] was 2. The “Protected rate (Day 12)” value [11, 12] was 60, the “Survival rate (Day 32)” value [11, 12] was 80% and the “Survived (Day 32)” value [11, 12] was 4.
